US5962476A, “Azolylamine derivative” (Kaken Pharmaceutical Co., Ltd., priority 1993, dated 1999)
Converted amounts (≈) assume the structure as drawn. Read-outs that look alike come from different tables or passages of the source.

Legend:
[1] = system: Trichophyton mentagrophytes KD-01; assay: Minimum inhibitory concentration (MIC), agar dilution method on Sabouraud's agar medium, 30° C. for 7 days; type: cell-based; conditions: KD01, 168 h, read-out: Minimum inhibitory concentration (MIC), T.m.
Protocol: (§1) MIC of a test compound against Candida albicans ATCC-10259 was determined by the both dilution method employing synthetic amino acid medium (SAAMF medium). Namely, to 3 μl of twofold dilution series of solution containing the test compound was added 300 μl of SAAMF medium inoculated with the fungus at the final concentration of 1×10^3 cells/ml. […] MIC of a test compound against the fungus other than the Candida albicans was determined by the agar dilution method employing Sabouraud's agar medium. That is to say, a test compound was dissolved in dimethyl sulfoxide to give a solution containing the test compound in the concentration of 10 mg/ml. Further, thus obtained solution was diluted with dimethyl sulfoxide according to twofold dilution series and 0.1 ml of the diluted solution was taken into a sterile shale. After 9.9 ml of Sabouraud's agar medium was added thereto, the mixture was sufficiently mixed to give a drug-added plate. The plate was inoculated with 5 μl of a fungus suspension at 10^6 cells/ml by Microplanter (Sakuma Seisakusho Co., Ltd.). As to Aspergillus fumigatus NI-5561 and Cryptococcus neoformans NI-7496, a plate was incubated at 30° C. for 48 hours. As to Trichophyton mentagrophytes KD-01, a plate was incubated at 30° C. for 7 days. […] Clotrimazole and fluconazole were used as comparative control compounds. |Trichophyton mentagrophytes KD-01 | T. m.

[2] = system: Aspergillus fumigatus NI-5561; assay: Minimum inhibitory concentration (MIC), agar dilution method on Sabouraud's agar medium, 30° C. for 48 hours; type: cell-based; conditions: read-out: Minimum inhibitory concentration (MIC), A.f.
Protocol: as §1, with “compounds.” for “compounds. |Trichophyton mentagrophytes KD-01 | T. m.”
Aspergillus fumigatus NI-5561

[3] = system: Cryptococcus neoformans NI-7496; assay: as above; type: cell-based; conditions: read-out: Minimum inhibitory concentration (MIC), Cr.n.
Protocol: as §1, with “compounds.” for “compounds. |Trichophyton mentagrophytes KD-01 | T. m.”
Cryptococcus neoformans NI-7496

[4] = Acute toxicity test for mice; type: in vivo, male ICR mouse
Protocol: The compound of Example 1 was dissolved in polyethylene glycol 200 and the resultant solution was applied to a male ICR mouse of 5 weeks old by oral or subcutaneous administration.

[5] = system: Trichophyton mentagrophytes KD-04; assay: Effect on trichophytosis in guinea pigs; type: in vivo, male Hartley guinea pig; conditions: guinea pig, topical 1% solution, 0.2 ml once a day for 10 days from 3 days after infection
Protocol: In the back of male Hartley guinea pig, weighing 400 to 500 g, a portion of skin was unhaired and rubbed lightly with sandpaper, to which 0.1 ml of microconidium suspension of Trichophyton mentagrophytes KD-04 (10^7 cells/ml) was dropped and the skin surface was infected by rubbing it with a glass rod. […] The animal was killed by etherization 2 days after the last treatment and 10 tissue specimens of skin were cut out from the infected portion and incubated on Sabouraud's agar medium for 7 days. Inhibitory ratio was calculated according to the following formula: […] of tissue specimens)}×100 The results are shown in Table 2. Clotrimazole was used as a control compound.

[6] = system: Candida albicans ATCC-10259; assay: Minimum inhibitory concentration (MIC), dilution method in SAAMF medium, 35° C. for 2 days; type: cell-based; conditions: ATCC10259, 48 h, read-out: Minimum inhibitory concentration (MIC), C.a.
Protocol: as §1, with “compounds.” for “compounds. |Trichophyton mentagrophytes KD-01 | T. m.”
Candida albicans ATCC 10259

Candida albicans KC-36 = assay: Therapeutic effect on cutaneous candidiasis in guinea pigs; type: in vivo, male Hartley guinea pig; conditions: guinea pig, topical 1% solution, 0.2 ml once a day for 3 days from 2 days after infection
Protocol: Inhibitory ratio (%={1-(number of tissue specimens found fungi/total number
of tissue specimens)}×100
In the back of male Hartley guinea pig, weighing 400 to 500 g, a portion of skin was unhaired, to which […] of spore suspension of Candida albicans KC-36 (5×10^7 cells/ml) was dropped and the skin surface was infected by rubbing it with a glass rod. To facilitate the infection, prednisolone was subcutaneously administered at 30 mg/kg on one day before the infection, the day of infection and 4 days after the infection. […] The animal was killed by etherization 2 days after the last treatment and 10 tissue specimens of skin were cut out from the infected portion and incubated on CANDIDA GS AGAR `EIKEN` (EIKEN CHEMICAL CO., LTD. ) for 7 days. The inhibitory ratio was calculated according to the above-mentioned formula. Clotrimazole was employed as a control compound.

[7] = NI5561, Aspergillus fumigatus NI-5561, Sabouraud's agar, 30° C., 48 hours
[8] = NI7496, Cryptococcus neoformans NI-7496, Sabouraud's agar, 30° C., 48 hours
[9] = Candida albicans ATCC 10259, SAAMF medium, 35° C., 2 days
[10] = Aspergillus fumigatus, NI5561, 48 h
[11] = Cryptococcus neoformans, NI7496, 48 h

Row | SMILES | MIC [1] [µg/mL] | MIC [2, 7] [µg/mL] | MIC [3, 8] [µg/mL] | MIC [6, 9] [µg/mL] | other results
1 | C=C1CCN([C@H](C)[C@](O)(Cn2cncn2)c2ccc(F)cc2F)CC1 [Example 1, (2R,3R)-2-(2,4-difluorophenyl)-3-(4-methylenepiperidino)-1-(1H-1,2,4-triazol-1-yl)butan-2-ol] | 0.39 (≈ 1.12 µM) | 0.05 (≈ 0.144 µM) | 0.05 (≈ 0.144 µM) | < 0.025 | Number of died mice/number of tested mice ([4]; oral, 500 mg/kg): 0/3; Number of died mice/number of tested mice ([4]; oral, 1000 mg/kg): 0/3; Number of died mice/number of tested mice ([4]; subcutaneous, 125 mg/kg): 0/3; Number of died mice/number of tested mice ([4]; subcutaneous, 250 mg/kg): 0/3; Number of died mice/number of tested mice ([4]; subcutaneous, 500 mg/kg): 0/3; Number of died mice/number of tested mice ([4]; subcutaneous, 1000 mg/kg): 0/3; Inhibitory ratio [5]: 98%; Inhibitory ratio (Candida albicans KC-36): 98%
2 | C=C1CCN([C@H](C)[C@](O)(Cn2cncn2)c2ccc(Cl)cc2)CC1 [Example 6, (2R,3R)-2-(4-chlorophenyl)-3-(4-methylenepiperidino)-1-(1H-1,2,4-triazol-1-yl)butan-2-ol] | 3.13 (≈ 9.02 µM) | 6.25 (≈ 18 µM) | 0.2 (≈ 0.577 µM) | < 0.0125 | 
3 | C=C1CCN([C@H](C)[C@](O)(Cn2cncn2)c2ccc(Cl)cc2Cl)CC1 [Example 7, (2R,3R)-2-(2,4-dichlorophenyl)-3-(4-methylenepiperidino)-1-(1H-1,2,4-triazol-1-yl)butan-2-ol] | 0.39 (≈ 1.02 µM) | 0.39 (≈ 1.02 µM) | 0.05 (≈ 0.131 µM) | 0.025 (≈ 0.0656 µM) | 
4 | C=C1CCN([C@H](C)[C@](O)(Cn2cncn2)c2ccc(F)cc2F)CC1 (racemic) [Example 2, (2RS,3RS)-2-(2,4-difluorophenyl)-3-(4-methylenepiperidino)-1-(1H-1,2,4-triazol-1-yl)butan-2-ol] | 0.39 (≈ 1.12 µM) | 0.1 (≈ 0.287 µM) | 0.1 (≈ 0.287 µM) | < 0.025 | 
5 | OC(Cn1cncn1)(Cn1cncn1)c1ccc(F)cc1F [Fluconazole, reference compound] | > 100 |  |  |  | MIC [2, 10]: > 100 µg/mL; MIC [3, 11]: 12.5 µg/mL (≈ 40.8 µM); MIC ([6]; Candida albicans): 0.39 µg/mL (≈ 1.27 µM)
6 | Clc1ccccc1C(c1ccccc1)(c1ccccc1)n1ccnc1 [Clotrimazole, reference compound] | 0.39 (≈ 1.13 µM) |  |  |  | MIC [2, 10]: 0.78 µg/mL (≈ 2.26 µM); MIC [3, 11]: 0.2 µg/mL (≈ 0.58 µM); Inhibitory ratio [5]: 20%; MIC ([6]; Candida albicans): 0.025 µg/mL (≈ 0.0725 µM); Inhibitory ratio (Candida albicans KC-36): 96%

More lines, main results first:

Row | MIC [1] [µg/mL] | MIC [2, 7] [µg/mL] | MIC [3, 8] [µg/mL] | MIC [6, 9] [µg/mL] | SMILES | other results
7 | 0.78 (≈ 2.15 µM) | 0.2 (≈ 0.552 µM) | 0.1 (≈ 0.276 µM) | < 0.025 | CC=C1CCN([C@H](C)[C@](O)(Cn2cncn2)c2ccc(F)cc2F)CC1 (racemic) [Example 8, (2RS,3RS)-2-(2,4-difluorophenyl)-3-(4-ethylidenepiperidino)-1-(1H-1,2,4-triazol-1-yl)butan-2-ol] | 
8 | 0.39 (≈ 0.919 µM) | 0.1 (≈ 0.236 µM) | 0.025 (≈ 0.0589 µM) | < 0.025 | C[C@@H](N1CCC(=Cc2ccccc2)CC1)[C@](O)(Cn1cncn1)c1ccc(F)cc1F (racemic) [Example 10, (2RS,3RS)-2-(2,4-difluorophenyl)-3-(4-benzylidenepiperidino)-1-(1H-1,2,4-triazol-1-yl)butan-2-ol] | 
9 | 0.78 (≈ 2.08 µM) | 0.2 (≈ 0.534 µM) | 0.1 (≈ 0.267 µM) | < 0.025 | C=CC=C1CCN([C@H](C)[C@](O)(Cn2cncn2)c2ccc(F)cc2F)CC1 [Example 12, (2R,3R)-2-(2,4-difluorophenyl)-3-(4-propenylidenepiperidino)-1-(1H-1,2,4-triazol-1-yl)butan-2-ol] | 
10 | 50 (≈ 144 µM) | > 100 | 0.78 (≈ 2.24 µM) | 0.39 (≈ 1.12 µM) | C=C1CCN([C@@H](C)[C@@](O)(Cn2cncn2)c2ccc(F)cc2F)CC1 [Example 3, (2S,3S)-2-(2,4-difluorophenyl)-3-(4-methylenepiperidino)-1-(1H-1,2,4-triazol-1-yl)butan-2-ol] | 
11 | 0.78 (≈ 2.33 µM) | 0.39 (≈ 1.17 µM) | 0.39 (≈ 1.17 µM) | < 0.025 | C=C1CCN([C@H](C)[C@](O)(Cn2cncn2)c2ccc(F)cc2F)C1 [Example 14, (2R,3R)-2-(2,4-difluorophenyl)-3-(3-methylenepyrrolidino)-1-(1H-1,2,4-triazol-1-yl)butan-2-ol] | 
12 | < 0.025 | 0.05 (≈ 0.144 µM) | < 0.025 | < 0.025 | C=C1CCN([C@H](C)[C@](O)(Cn2ccnc2)c2ccc(F)cc2F)CC1 [Example 4, (2R,3R)-2-(2,4-difluorophenyl)-3-(4-methylenepiperidino)-1-(1H-imidazol-1-yl)butan-2-ol] | 
13 | 1.56 (≈ 4.48 µM) | 0.78 (≈ 2.24 µM) | 0.39 (≈ 1.12 µM) | 0.1 (≈ 0.287 µM) | C=C1CCCN([C@H](C)[C@](O)(Cn2cncn2)c2ccc(F)cc2F)C1 [Example 13, (2R,3R)-2-(2,4-difluorophenyl)-3-(3-methylenepiperidino)-1-(1H-1,2,4-triazol-1-yl)butan-2-ol] | 
14 | 0.1 (≈ 0.288 µM) | 0.05 (≈ 0.144 µM) | 0.025 (≈ 0.072 µM) | < 0.025 | C=C1CCN([C@H](C)[C@](O)(Cn2ccnc2)c2ccc(F)cc2F)CC1 (racemic) [Example 5, (2RS,3RS)-2-(2,4-difluorophenyl)-3-(4-methylenepiperidino)-1-(1H-imidazol-1-yl)butan-2-ol] | 
